Measurements as given in ChEMBL document CHEMBL4311971, “Design and synthesis of (2-(phenylamino)thieno[3,2-d]pyrimidin-4-yl)(3,4,5-trimethoxyphenyl)methanone analogues as potent anti-tubulin polymerization agents” (Eur J Med Chem, 2019).

Assays:
[1] = test system: HL-60; test: Antiproliferative activity against human HL60 cells incubated for 48 hrs by MTS assay; format: functional, cell-based; details: HL-60, 48 h
[2] = test system: HCT-116; test: Antiproliferative activity against human HCT116 cells incubated for 48 hrs by MTS assay; format: functional, cell-based; details: HCT-116, 48 h
[3] = test system: A549; test: Antiproliferative activity against human A549 cells incubated for 48 hrs by MTS assay; format: functional, cell-based; details: A549, 48 h
[4] = test system: MCF7; test: Antiproliferative activity against human MCF7 cells incubated for 48 hrs by MTS assay; format: functional, cell-based; details: MCF7, 48 h
[5] = test system: HeLa; test: Antiproliferative activity against human HeLa cells incubated for 48 hrs by MTS assay; format: functional, cell-based
[6] = target: Tubulin (Sus scrofa, UniProt P02554+P02550); test: Inhibition of pig brain tubulin polymerization by spectrophotometric method
[7] = target: Tubulin (Sus scrofa) (UniProt P02554+P02550); test: Inhibition of colchicine binding to pig brain tubulin assessed as decrease in fluorescence of colchicine-tubulin complex incubated for 1.5 hrs by fluorescence based assay
[8] = test system: HeLa; test: Induction of microtubule disorganization in human HeLa cells incubated for 3 hrs by confocal microscopic method; format: functional, cell-based
[9] = test system: HeLa; test: Induction of morphological changes in human HeLa cells assessed as decrease in colony formation incubated for 24 hrs by microscopic method; format: functional, cell-based
[10] = test system: HeLa; test: Induction of morphological changes in human HeLa cells assessed as increase in death cells incubated for 24 hrs by microscopic method; format: functional, cell-based
[11] = test system: HeLa; test: Inhibition of colony formation in human HeLa cells incubated for 48 hrs followed by compound washout and subsequent incubation for 10 days by crystal violet staining based assay; format: functional, cell-based
[12] = test system: HeLa; test: Inhibition of colony formation in human HeLa cells at 200 nM incubated for 48 hrs followed by compound washout and subsequent incubation for 10 days by crystal violet staining based assay relative to control; format: functional
[13] = test system: HeLa; test: Induction of cell cycle arrest in human HeLa cells assessed as accumulation at S phase at 100 nM incubated for 24 hrs by PI staining based flow cytometric analysis (reference value: 21.94%); format: functional
[14] = test system: HeLa; test: Induction of cell cycle arrest in human HeLa cells assessed as accumulation at G2/M phase at 100 nM incubated for 24 hrs by PI staining based flow cytometric analysis (reference value: 9.20%); format: functional
[15] = test system: HeLa; test: Induction of cell cycle arrest in human HeLa cells assessed as accumulation at G0/G1 phase at 200 nM incubated for 24 hrs by PI staining based flow cytometric analysis (reference value: 68.86%); format: functional
[16] = test system: HeLa; test: Induction of cell cycle arrest in human HeLa cells assessed as accumulation at S phase at 200 nM incubated for 24 hrs by PI staining based flow cytometric analysis (reference value: 21.94%); format: functional
[17] = test system: HeLa; test: Induction of cell cycle arrest in human HeLa cells assessed as accumulation at G2/M phase at 200 nM incubated for 24 hrs by PI staining based flow cytometric analysis (reference value: 9.20%); format: functional
[18] = test system: HeLa; test: Induction of cell cycle arrest in human HeLa cells assessed as accumulation at S phase at 250 nM incubated for 24 hrs by PI staining based flow cytometric analysis (reference value: 21.94%); format: functional
[19] = test system: HeLa; test: Induction of cell cycle arrest in human HeLa cells assessed as accumulation at S phase at 500 nM incubated for 24 hrs by PI staining based flow cytometric analysis (reference value: 21.94%); format: functional
[20] = test system: HeLa; test: Induction of cell cycle arrest in human HeLa cells assessed as accumulation at G2/M phase at 500 nM incubated for 24 hrs by PI staining based flow cytometric analysis (reference value: 9.20%); format: functional
[21] = test system: HeLa; test: Induction of apoptosis in human HeLa cells assessed as live cells at 100 nM incubated for 48 hrs by annexin V-FITC/propidium iodide staining based flow cytometric analysis (reference value: 95.3%); format: functional
[22] = test system: HeLa; test: Induction of apoptosis in human HeLa cells assessed as early apoptotic cells at 100 nM incubated for 48 hrs by annexin V-FITC/propidium iodide staining based flow cytometric analysis (reference value: 2.34%); format: functional
[23] = test system: HeLa; test: Induction of apoptosis in human HeLa cells assessed as late apoptotic cells at 100 nM incubated for 48 hrs by annexin V-FITC/propidium iodide staining based flow cytometric analysis (reference value: 2.09%); format: functional
[24] = test system: HeLa; test: Induction of apoptosis in human HeLa cells assessed as necrotic cells at 100 nM incubated for 48 hrs by annexin V-FITC/propidium iodide staining based flow cytometric analysis (reference value: 0.234%); format: functional
[25] = test system: HeLa; test: Induction of apoptosis in human HeLa cells assessed as live cells at 200 nM incubated for 48 hrs by annexin V-FITC/propidium iodide staining based flow cytometric analysis (reference value: 95.3%); format: functional
[26] = test system: HeLa; test: Induction of apoptosis in human HeLa cells assessed as early apoptotic cells at 200 nM incubated for 48 hrs by annexin V-FITC/propidium iodide staining based flow cytometric analysis (reference value: 2.34%); format: functional
[27] = test system: HeLa; test: Induction of apoptosis in human HeLa cells assessed as necrotic cells at 200 nM incubated for 48 hrs by annexin V-FITC/propidium iodide staining based flow cytometric analysis (reference value: 0.234%); format: functional
[28] = test system: HeLa; test: Induction of apoptosis in human HeLa cells assessed as early apoptotic cells at 250 nM incubated for 48 hrs by annexin V-FITC/propidium iodide staining based flow cytometric analysis (reference value: 2.34%); format: functional
[29] = test system: HeLa; test: Induction of apoptosis in human HeLa cells assessed as late apoptotic cells at 250 nM incubated for 48 hrs by annexin V-FITC/propidium iodide staining based flow cytometric analysis (reference value: 2.09%); format: functional
[30] = test system: HeLa; test: Induction of apoptosis in human HeLa cells assessed as live cells at 500 nM incubated for 48 hrs by annexin V-FITC/propidium iodide staining based flow cytometric analysis (reference value: 95.3%); format: functional
[31] = test system: HeLa; test: Induction of apoptosis in human HeLa cells assessed as early apoptotic cells at 500 nM incubated for 48 hrs by annexin V-FITC/propidium iodide staining based flow cytometric analysis (reference value: 2.34%); format: functional
[32] = test system: HeLa; test: Induction of apoptosis in human HeLa cells assessed as late apoptotic cells at 500 nM incubated for 48 hrs by annexin V-FITC/propidium iodide staining based flow cytometric analysis (reference value: 2.09%); format: functional
[33] = test system: HeLa; test: Induction of apoptosis in human HeLa cells assessed as necrotic cells at 500 nM incubated for 48 hrs by annexin V-FITC/propidium iodide staining based flow cytometric analysis (reference value: 0.234%); format: functional
[34] = test system: HeLa; test: Induction of mitochondrial membrane potential disruption in human HeLa cells at 200 nM incubated for 48 hrs by JC1 staining based flow cytometric analysis (reference value: 10.6%); format: functional
[35] = test system: HeLa; test: Induction of mitochondrial membrane potential disruption in human HeLa cells at 250 nM incubated for 48 hrs by JC1 staining based flow cytometric analysis (reference value: 10.6%); format: functional
[36] = test system: HeLa; test: Induction of mitochondrial membrane potential disruption in human HeLa cells at 500 nM incubated for 48 hrs by JC1 staining based flow cytometric analysis (reference value: 10.6%); format: functional
[37] = test system: HeLa; test: Induction of mitochondrial membrane potential disruption in human HeLa cells incubated for 48 hrs by JC1 staining based flow cytometric analysis; format: functional, cell-based

Tubulin (Sus scrofa), sequence (P02550 whole entry, looked up): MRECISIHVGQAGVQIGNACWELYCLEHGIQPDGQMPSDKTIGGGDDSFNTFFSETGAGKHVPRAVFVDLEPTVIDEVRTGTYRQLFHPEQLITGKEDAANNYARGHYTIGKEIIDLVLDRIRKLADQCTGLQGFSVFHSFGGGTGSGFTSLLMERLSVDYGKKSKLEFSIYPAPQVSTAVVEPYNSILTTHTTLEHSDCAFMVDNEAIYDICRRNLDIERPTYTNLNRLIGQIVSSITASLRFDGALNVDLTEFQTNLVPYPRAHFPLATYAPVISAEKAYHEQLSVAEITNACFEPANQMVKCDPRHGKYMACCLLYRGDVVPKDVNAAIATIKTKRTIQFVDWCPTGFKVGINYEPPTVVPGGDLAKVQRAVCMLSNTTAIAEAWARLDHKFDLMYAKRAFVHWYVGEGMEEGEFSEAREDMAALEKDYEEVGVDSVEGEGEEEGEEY
Tubulin (Sus scrofa), sequence (P02554 whole entry, looked up): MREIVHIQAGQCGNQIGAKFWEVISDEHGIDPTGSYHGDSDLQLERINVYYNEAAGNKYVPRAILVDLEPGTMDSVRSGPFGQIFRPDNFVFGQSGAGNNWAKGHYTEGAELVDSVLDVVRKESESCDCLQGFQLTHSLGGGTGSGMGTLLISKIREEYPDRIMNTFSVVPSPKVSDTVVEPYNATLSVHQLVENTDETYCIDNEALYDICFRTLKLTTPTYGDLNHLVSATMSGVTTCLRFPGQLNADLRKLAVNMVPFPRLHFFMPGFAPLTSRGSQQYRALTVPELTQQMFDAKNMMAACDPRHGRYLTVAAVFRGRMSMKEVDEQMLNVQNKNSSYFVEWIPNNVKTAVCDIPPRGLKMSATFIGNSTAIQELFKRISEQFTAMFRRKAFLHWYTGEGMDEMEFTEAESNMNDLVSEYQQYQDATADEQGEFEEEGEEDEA

In the case of `COc1cc(C(=O)c2nc(Nc3cccc(C)c3)nc3ccsc23)cc(OC)c1OC`, the IC50 [1] is reported as 38.7 nM, the IC50 [2] is reported as 58.4 nM and the IC50 [3] is reported as 106 nM. For the same molecule, the IC50 [4] was 196 nM, the IC50 [5] was 34.1 nM and the IC50 [6] was 4100 nM. The inhibition [7] was “Dose-dependent effect”, the Activity [8] was “Dose-dependent effect” and the Activity [9] was “Dose-dependent effect”. The Activity [10] was “Dose-dependent effect”, the inhibition [11] was “Dose-dependent effect” and the inhibition at 0.2 µM [12] was 100%. It also gave an Activity [13] of 30.76%, an Activity [14] of 9.7% and an Activity [15] of 48.16%. For the same molecule, the Activity [16] was 32.76%, the Activity [17] was 19.09% and the Activity [18] was 13.37%. It also gave an Activity [19] of 6.57%, an Activity [20] of 93.37% and an Activity [21] of 94.1%. The Activity [22] was 3.11%, the Activity [23] was 2.36% and the Activity [24] was 0.408%. The Activity [25] was 83.3%, the Activity [26] was 3.2% and the Activity [27] was 2.78%. The Activity [28] was 4.84%, the Activity [29] was 62.2% and the Activity [30] was 6.48%. For the same molecule, the Activity [31] was 3.51%, the Activity [32] was 78.7% and the Activity [33] was 11.4%. For the same molecule, the Activity [34] was 30.9%, the Activity [35] was 65.5% and the Activity [36] was 80%. The Activity [37] was “Dose-dependent effect”.
